Laboratory results published in paper PMC9697031, “Identification of Novel Diarylpyrimidines as Potent HIV-1 Non-Nucleoside Reverse Transcriptase Inhibitors by Exploring the Primer Grip Region” (Pharmaceuticals, 2022).
Where two headings read alike, the source gives them in different places.

Assays:
WT HIV-1 strain (IIIB) [1] = assay: Anti-HIV-1 (IIIB, wild-type) activity in MT-4 cells, MTT method; assay type: cell-based; settings: for SI (IIIB): selectivity index, CC50/EC50 (IIIB)
Method: (§1) Stock solutions (10 × final concentration) of test compounds were added in 25 μL volumes to two series of triplicate wells to allow simultaneous evaluation of their effects on mock- and HIV-infected cells at the beginning of each experiment.

HIV-2 strain (ROD) = assay: Anti-HIV-2 (ROD) activity in MT-4 cells, MTT method; assay type: cell-based; settings: Human immunodeficiency virus 2, MT4, read-out: EC50 ROD
Method: as §1

in vitro = settings: human
Method: as §1

[2] = tested on: HIV-1 L100I mutant strain; assay: Anti-HIV-1 mutant strain L100I in MT-4 cells, MTT method; assay type: cell-based; settings: Human immunodeficiency virus 1, MT4, read-out: EC50 L100I
Method: (§2) Evaluation of the anti-HIV activity and cytotoxicity of the target compounds was performed by utilizing the MTT method in MT-4 cells described previously [37]. Stock solutions (10 × final concentration) of test compounds were added in 25 μL volumes to two series of triplicate wells to allow simultaneous evaluation of their effects on mock- and HIV-infected cells at the beginning of each experiment. Serial five-fold dilutions of test compounds were prepared directly in flat-bottomed 96-well microtiter trays by adding 100 μL medium to the 25 μL stock solution and transferring 25 μL of this solution to another well that contained 100 μL medium using a Biomek 3000 robot (Beckman Instruments, Fullerton, CA). Each sample includes untreated control HIV- and mock-infected cell samples. WT HIV-1 strain (IIIB), HIV-1 drug-resistant strains including L100I, K103N, Y181C, Y188L, E138K, K103N/Y181C, F227L/V106A or HIV-2 strain (ROD) stock (50 μL) at 100–300 CCID50 (50% cell culture infectious dose) or culture medium was added to either the infected or mock-infected wells of the microtiter tray. Mock-infected cells were used to evaluate the effect of test compounds on uninfected cells to evaluate their cytotoxicity. Exponentially growing MT-4 cells were centrifuged for 5 min at 1000 rpm, and the supernatant was discarded. […] After infection five days, the viability of mock- and HIV-infected cells was examined spectrophotometrically by the MTT assay.

[3] = tested on: HIV-1 K103N mutant strain; assay: microbe, parasite or virus in culture; assay type: cell-based; settings: for EC50: Human immunodeficiency virus 1, MT4, read-out: EC50 K103N; for Resistance Folds K103N: RF, EC50 (K103N)/EC50 (WT)
Method: as §1

[4] = tested on: HIV-1 Y181C mutant strain; assay: Anti-HIV-1 mutant strain Y181C in MT-4 cells, MTT method; assay type: cell-based; settings: Human immunodeficiency virus 1, MT4, read-out: EC50 Y181C
Method: as §2

[5] = tested on: HIV-1 Y188L mutant strain; assay: Anti-HIV-1 mutant strain Y188L in MT-4 cells, MTT method; assay type: cell-based; settings: Human immunodeficiency virus 1, MT4, read-out: EC50 Y188L
Method: as §2

[6] = tested on: HIV-1 E138K mutant strain; assay: Anti-HIV-1 mutant strain E138K in MT-4 cells, MTT method; assay type: cell-based; settings: Human immunodeficiency virus 1, MT4, read-out: EC50 E138K
Method: as §2

[7] = tested on: HIV-1 F227L + V106A mutant strain; assay: Anti-HIV-1 double mutant F227L + V106A in MT-4 cells, MTT method; assay type: cell-based; settings: Human immunodeficiency virus 1, MT4, read-out: EC50 F227L + V106A
Method: as §2

[8] = tested on: HIV-1 RES056 (K103N/Y181C) mutant strain; assay: Anti-HIV-1 double mutant RES056 in MT-4 cells, MTT method; assay type: cell-based; settings: Human immunodeficiency virus 1, MT4, read-out: EC50 RES056
Method: as §2

HIV-1 WT RT [9] = biological target: T1, HIV-1 WT RT (Human immunodeficiency virus type 1 group M subtype B, UniProt P04585); assay: HIV-1 RT inhibition assay (Roche kit, ELISA); assay type: biochemical
T1 construct: The RT is a heterodimer consisting of two subunits, p66 (560 residues) and p51 (440 residues); purchased Roche
Method: An HIV-1 reverse transcriptase (RT) assay kit produced by Roche was used for the RT inhibition assay. All the reagents for performing the RT reaction came from the kit, and the ELSIA procedures for RT inhibition assay were conducted following the description in the kit protocol [38]. […] Then used, a washing buffer was used to remove the unbound dNTPs, and an anti-DIG-POD working solution was added. […] The unbound anti-DIG-PODs were removed, and the peroxidesubstrate (ABST) solution was added to the MTPs. A colored reaction proceeds during the cleavage of the substrate catalyzed by POD. […] The percentage inhibitory activity of RT inhibitors was calculated by the formula given below: % Inhibition = [O.D. value with RT but without inhibitors − O.D. value with RT and inhibitors]/[O.D. value with RT and inhibitors − O.D. value without RT and inhibitors].

HIV-1 WT RT [10] = biological target: T1, HIV-1 WT RT; set-up: method as in PMID 35061384; settings: incorporation of biotin-dUTP; used for comparison ref 5; cited from earlier work
WT HIV-1 strain (IIIB) [11] = tested on: WT HIV-1 strain (IIIB); set-up: method as in PMID 35061384; settings: MT-4 cells, WT HIV-1 IIIB; used for comparison ref 5; cited from earlier work
[12] = Human immunodeficiency virus 1, IIIB, MT4, read-out: EC50 IIIB, MT-4 cells, WT HIV-1 IIIB, MTT

Row | Compound | EC50 (WT HIV-1 strain (IIIB) [1]; [12]) [nM] | SI (IIIB) (WT HIV-1 strain (IIIB) [1]) | EC50 (HIV-2 strain (ROD)) [nM] | CC50 at 5 days (in vitro) [nM] | EC50 [2] [nM] | EC50 [3] [nM] | Resistance Folds K103N [3] | EC50 [4] [nM] | EC50 [5] [nM] | EC50 [6] [nM] | EC50 [7] [nM] | EC50 [8] [nM] | IC50 (HIV-1 WT RT [9]) [nM] | melting point [°C] | EC50 (WT HIV-1 strain (IIIB) [1]; read-out: EC50 IIIB, MT-4 cells, WT HIV-1 IIIB, MTT) [nM] | IC50 (HIV-1 WT RT [10]) [nM] | EC50 (WT HIV-1 strain (IIIB) [11]) [nM]
1 | Cc1cc(COc2ccc(F)nc2)cc(C)c1Oc1ccnc(Nc2ccc(C#N)cc2)n1 [TF14, 4-((4-(4-(((6-fluoropyridin-3-yl)oxy)methyl)-2,6-dimethylphenoxy)pyrimidin-2-yl)amino)benzonitrile] | 23.6 ± 3.8 | 1034.6 | > 24400 | 24400 | 185 ± 11.6 | 36.7 ± 3.7 | 1.54 | 286 ± 52.1 | 774 ± 39.2 | 67.4 ± 8.1 | 999 ± 126 | 1190 ± 182 | 41 ± 3 | 185 to 188 |  |  | 
2 | Cc1cc(COc2cccnc2C#N)cc(C)c1Oc1ccnc(Nc2ccc(C#N)cc2)n1 [TF12, 3-((4-((2-((4-cyanophenyl)amino)pyrimidin-4-yl)oxy)-3,5-dimethylbenzyl)oxy) picolinonitrile] | 7.8 ± 0.8 | 316.9 | > 2460 | 2460 ± 198 | 246 ± 54.6 | 34.7 ± 8.8 | 4.49 | 384 ± 75.5 | ≥ 1560 | 46.2 ± 7.1 | 742 ± 145 | > 2460 | 38 ± 4 | 245 to 248 |  |  | 
3 | Cc1cc(COc2ccc(CO)cc2)cc(C)c1Oc1ccnc(Nc2ccc(C#N)cc2)n1 [TF8, 4-((4-(4-((4-(hydroxymethyl)phenoxy)methyl)-2,6-dimethylphenoxy)pyrimidin-2-yl)amino)benzonitrile] | 42.8 ± 5.6 | 68.1 | > 2920 | 2920 ± 272 | 329 ± 56.7 | 110 ± 4.6 | 2.56 | 667 ± 78 | 886 ± 20.1 | 148 ± 4.6 | 853 ± 81.4 | 1419 ± 9.7 | 41 ± 1 | 209 to 212 |  |  | 
4 | Cc1cc(COc2cccnc2)cc(C)c1Oc1ccnc(Nc2ccc(C#N)cc2)n1 [TF11, 4-((4-(2,6-Dimethyl-4-((pyridin-3-yloxy)methyl)phenoxy)pyrimidin-2-yl)amino) benzonitrile] | 199 ± 13 | 74.5 | > 14800 | 14800 | 9574 ± 22.2 | 444 ± 68.6 | 2.23 | > 14800 | > 14800 | ≥ 3020 | > 14800 | > 14800 | 483 ± 30 | 237 to 240 |  |  | 
5 | Cc1cc(C#N)cc(C)c1Oc1nc(Nc2ccc(C#N)cc2)nc(N)c1Br [ETR, etravirine, reference compound] | 3 | >1578.9 |  | > 4590 | 5.9 ± 1 | 3 ± 0.3 |  | 11.1 ± 1.3 | 18.1 ± 3.2 | 6.3 ± 1.2 | 20.4 ± 7.8 | 29.5 ± 4.8 |  |  | 2.9 ± 0.4 | 11 | 
6 | Cc1cc(COc2ccccc2CO)cc(C)c1Oc1ccnc(Nc2ccc(C#N)cc2)n1 [TF10, 4-((4-(4-((2-(hydroxymethyl)phenoxy)methyl)-2,6-dimethylphenoxy)pyrimidin-2-yl)amino)benzonitrile] | 32.2 ± 3.3 | 149.1 | > 4800 | 4800 ± 342 | 635 ± 28.2 | 158 ± 18.6 | 4.94 | 766 ± 22.5 | > 4800 | 179 ± 26.9 | 1490 ± 33.9 | > 4800 | 55 | 179 to 182 |  |  | 
7 | Cc1cc(/C=C/C#N)cc(C)c1Nc1ccnc(Nc2ccc(C#N)cc2)n1 [RPV, rilpivirine] |  |  |  |  |  |  |  |  |  |  |  |  |  |  |  |  | 1 ± 0.27
